# Assay results published in US7598269B2, “Methods and compositions for treating amyloid-related diseases” (Bellus Health (International) Limited, priority 2003, dated 2009).
# Columns and labels:
# Aβ40 = target: T1, Aβ40 (Homo sapiens, UniProt P05067); test: Short term treatment of TgCRND8 mice: Aβ40 levels in plasma and brain (ELISA); format: in vivo, Mouse; conditions: for Aβ40 Change: plasma, TgCRND8 mice
# T1 construct: from tissue; host or cells: plasma and brain homogenate of TgCRND8 transgenic mice (hAPP transgene)
# Source text: (§1) Transgenic mice, […]8, expressing the human amyloid precursor protein (hAPP) develop a pathology resembling Alzheimer's disease. In particular, high levels of Aβ40 and Aβ42 have been documented in the plasma and the brain of these animals at 8-9 weeks of age, followed by early accumulation of amyloid plaques similar to the senile plaques observed in […]. These animals also display progressive cognitive deficits that parallel the appearance of degenerative changes. See, […], et al., J. Biol. Chem. 276, 21562-70 (2001). The short term therapeutic effect of 19 compounds of the invention was studied. […] The following abbreviations are used to designate these animals from the 3rd and 4th generation backcross in the present protocol: TgCRND8-2.B6C3F1 (N3); TgCRND8-2.B6C3F1 (N4). Baseline animals (Group 1) consisted of naive TgCRND8-2.B6C3F1(N3) at 11±1 weeks of age. These mice were used to determine the Aβ levels in the plasma and brain of naive transgenic animals at the initiation of treatment. […] At the end of the treatment periods, plasma and perfused brains were collected for quantification of Aβ levels. […] Plasma samples were immediately frozen and stored at -80° C. pending analysis. The brains were removed, frozen, and stored at -80° C. awaiting analysis. […] Samples were spun at 15000 g for 20 minutes and the supernatants were transferred to fresh tubes. […] The tubes were vortexed for 30 seconds and frozen at -80° C. […] Samples were thawed at room temperature, sonicated at 80° C. for 15 minutes and frozen again. This cycle was repeated 3 times to ensure homogeneity and samples were returned to -80° C. pending analysis. Aβ levels were evaluated in plasma and brain samples by ELISA using Human Aβ40 and Aβ42 Fluorometric ELISA kits from Biosource (Cat. […] In short, samples were thawed at room temperature, sonicated for 5 minutes at 80° C. (sonication for brain homogenates; no sonication for plasma samples) and kept on ice. Aβ peptides were captured using 100 μl of the diluted samples to the plate and incubated without shaking at 4° C. overnight. The samples were aspirated and the wells were rinsed 4 times with wash buffer obtained from the Biosource ELISA kit. The anti-Aβ40 or anti-Aβ42 rabbit polyclonal antiserum (specific for the Aβ40 or Aβ42 peptide) was added (100 μl) and the plate was incubated at room temperature for 2 hours with shaking. The wells were aspirated and washed 4 times before adding 100 μl of the alkaline phosphatase labeled anti-rabbit antibody and incubating at room temperature for 2 hours with shaking. The plates were then rinsed 5 times and the fluorescent substrate (100 μl) was added to the plate. The plate was incubated for 35 minutes at room temperature and the plate was read using a titer plate reader at an excitation wavelength of 460 nm and emission at 560 nm. Compounds were scored based on their ability to modulate levels of Aβ peptides in the plasma and the cerebral soluble/insoluble levels in the brain. Levels of Aβ observed in the plasma and brain of treated animals were normalized using values from vehicle-treated (water) or methylcellulose-treated control groups and ranked according to the strength of the pharmacological effect. Increases in the levels of Aβ peptides are indicated using “+” symbols, while decreases in the levels of Aβ peptides are indicated using “-” symbols. The strongest effects are recorded as “+++” or “---” while the weakest are shown as “+” or “-”.
# Aβ42 = target: T2, Aβ42 (Homo sapiens, UniProt P05067); test: Short term treatment of TgCRND8 mice: Aβ42 levels in plasma and brain (ELISA); format: in vivo, Mouse; conditions: for Aβ42 Change: plasma, TgCRND8 mice
# T2 construct: from tissue; host or cells: plasma and brain homogenate of TgCRND8 transgenic mice (hAPP transgene)
# Source text: as §1
# [1] = brain homogenate, vehicle group, Day 14, 250 mg/kg daily subcutaneous
# [2] = brain homogenate, vehicle group, Day 28, 250 mg/kg daily subcutaneous
# [3] = brain homogenate, methylcellulose group, Day 14, 250 mg/kg daily oral
# [4] = brain homogenate, methylcellulose group, Day 28, 250 mg/kg daily oral
# [5] = methylcellulose group, Day 14, 250 mg/kg daily oral
# [6] = vehicle (water) group, Day 14, 250 mg/kg daily subcutaneous
# [7] = vehicle (water) group, Day 28, 250 mg/kg daily subcutaneous
# T2 sequence (P05067 672-713 limits assumed): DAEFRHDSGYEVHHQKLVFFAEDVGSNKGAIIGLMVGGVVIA
# T1 sequence (P05067 672-711 limits assumed): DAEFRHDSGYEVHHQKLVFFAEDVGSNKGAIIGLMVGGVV
compound,measurement,setting,value
"CCCCCNCCCS(=O)(=O)O [CF, 3-pentylamino-1-propanesulfonic acid]",Aβ40 Change Insoluble,Aβ40; [1],− (Decreases in the levels of Aβ of 5 to 19% are scored as “−”)
same,Aβ40 Change Soluble,Aβ40; [1],++ (increases of 40 to 69% are scored as “++”)
same,Aβ40 Change Soluble,Aβ40; [2],+ (increases in the levels of Aβ (relative to untreated control) of 20 to 39% are scored as “+”)
same,Aβ42 Change Insoluble,Aβ42; [1],−− (decreases of 20 to 38% are scored as “−−”)
same,Aβ42 Change Soluble,Aβ42; [1],− (Decreases in the levels of Aβ of 5 to 19% are scored as “−”)
same,Aβ42 Change Insoluble,Aβ42; [2],+ (increases in the levels of Aβ (relative to untreated control) of 20 to 39% are scored as “+”)
"CCCCCCCCNCCCS(=O)(=O)O [CZ, 3-octylamino-1-propanesulfonic acid]",Aβ40 Change Insoluble,Aβ40; [3],−− (decreases of 20 to 38% are scored as “−−”)
same,Aβ40 Change Soluble,Aβ40; [3],− (Decreases in the levels of Aβ of 5 to 19% are scored as “−”)
same,Aβ40 Change Soluble,Aβ40; [4],− (Decreases in the levels of Aβ of 5 to 19% are scored as “−”)
same,Aβ40 Change,Aβ40; [5],− (Decreases in the levels of Aβ of 5 to 19% are scored as “−”)
same,Aβ42 Change Insoluble,Aβ42; [3],−−− (decreases of 39% or more are scored as “−−−”)
same,Aβ42 Change Soluble,Aβ42; [3],−−− (decreases of 39% or more are scored as “−−−”)
same,Aβ42 Change Insoluble,Aβ42; [4],−− (decreases of 20 to 38% are scored as “−−”)
same,Aβ42 Change Soluble,Aβ42; [4],− (Decreases in the levels of Aβ of 5 to 19% are scored as “−”)
same,Aβ42 Change,Aβ42; [5],− (Decreases in the levels of Aβ of 5 to 19% are scored as “−”)
same,Aβ42 Change,"Aβ42; methylcellulose group, Day 28, 250 mg/kg daily oral",− (Decreases in the levels of Aβ of 5 to 19% are scored as “−”)
NCCSS(=O)(=O)O [BE],Aβ40 Change Soluble,Aβ40; [1],+ (increases in the levels of Aβ (relative to untreated control) of 20 to 39% are scored as “+”)
same,Aβ40 Change Insoluble,Aβ40; [2],− (Decreases in the levels of Aβ of 5 to 19% are scored as “−”)
same,Aβ40 Change Soluble,Aβ40; [2],+ (increases in the levels of Aβ (relative to untreated control) of 20 to 39% are scored as “+”)
same,Aβ40 Change,Aβ40; [6],++ (increases of 40 to 69% are scored as “++”)
same,Aβ40 Change,Aβ40; [7],+++ (increases of 70% or higher are scored as “+++”)
same,Aβ42 Change Insoluble,Aβ42; [1],+++ (increases of 70% or higher are scored as “+++”)
same,Aβ42 Change Soluble,Aβ42; [1],+++ (increases of 70% or higher are scored as “+++”)
same,Aβ42 Change Insoluble,Aβ42; [2],+++ (increases of 70% or higher are scored as “+++”)
same,Aβ42 Change Soluble,Aβ42; [2],+++ (increases of 70% or higher are scored as “+++”)
same,Aβ42 Change,Aβ42; [6],+++ (increases of 70% or higher are scored as “+++”)
same,Aβ42 Change,Aβ42; [7],+++ (increases of 70% or higher are scored as “+++”)
"O=S(=O)(O)CCCNCCc1c[nH]c2ccccc12 [Compound BT, 3-{[2-(3-indolyl)ethyl]-amino}-1-propanesulfonic acid]",Aβ40 Change Insoluble,Aβ40; [3],+++ (increases of 70% or higher are scored as “+++”)
same,Aβ40 Change Insoluble,Aβ40; [4],++ (increases of 40 to 69% are scored as “++”)
same,Aβ40 Change Soluble,Aβ40; [4],−− (decreases of 20 to 38% are scored as “−−”)
same,Aβ42 Change Soluble,Aβ42; [3],++ (increases of 40 to 69% are scored as “++”)
same,Aβ42 Change Soluble,Aβ42; [4],++ (increases of 40 to 69% are scored as “++”)
"CC[C@@H](CO)NCCCS(=O)(=O)O [CU, (S)-3-(1-hydroxy-2-butylamino)-1-propanesulfonic acid]",Aβ40 Change Soluble,Aβ40; [1],+ (increases in the levels of Aβ (relative to untreated control) of 20 to 39% are scored as “+”)
same,Aβ40 Change Insoluble,Aβ40; [2],+++ (increases of 70% or higher are scored as “+++”)
same,Aβ40 Change,Aβ40; [7],+ (increases in the levels of Aβ (relative to untreated control) of 20 to 39% are scored as “+”)
same,Aβ42 Change Insoluble,Aβ42; [1],− (Decreases in the levels of Aβ of 5 to 19% are scored as “−”)
same,Aβ42 Change Soluble,Aβ42; [1],++ (increases of 40 to 69% are scored as “++”)
same,Aβ42 Change Insoluble,Aβ42; [2],+++ (increases of 70% or higher are scored as “+++”)
same,Aβ42 Change Soluble,Aβ42; [2],++ (increases of 40 to 69% are scored as “++”)
same,Aβ42 Change,Aβ42; [7],+ (increases in the levels of Aβ (relative to untreated control) of 20 to 39% are scored as “+”)
"CC(CO)NCCCS(=O)(=O)O (centres unmarked) [CW, 3-(1-hydroxy-2-propylamino)-1-propanesulfonic acid]",Aβ40 Change (total levels),"Aβ40; brain homogenate, vehicle group, Day 28, total Aβ40, soluble and insoluble not measured independently",+ (increases in the levels of Aβ (relative to untreated control) of 20 to 39% are scored as “+”)
same,Aβ40 Change,Aβ40; [6],++ (increases of 40 to 69% are scored as “++”)
same,Aβ40 Change,Aβ40; [7],++ (increases of 40 to 69% are scored as “++”)
same,Aβ42 Change (total levels),"Aβ42; brain homogenate, vehicle group, Day 28, total Aβ42, soluble and insoluble not measured independently",++ (increases of 40 to 69% are scored as “++”)
same,Aβ42 Change,Aβ42; [6],++ (increases of 40 to 69% are scored as “++”)
same,Aβ42 Change,Aβ42; [7],+ (increases in the levels of Aβ (relative to untreated control) of 20 to 39% are scored as “+”)
"CCCC(CO)NCCCS(=O)(=O)O (racemic) [Compound CA, 3-[(dl)-1-hydroxy-2-pentyl]amino-1-propane-sulfonic acid]",Aβ40 Change Insoluble,Aβ40; [1],− (Decreases in the levels of Aβ of 5 to 19% are scored as “−”)
same,Aβ40 Change Soluble,Aβ40; [1],+ (increases in the levels of Aβ (relative to untreated control) of 20 to 39% are scored as “+”)
same,Aβ40 Change Insoluble,Aβ40; [2],++ (increases of 40 to 69% are scored as “++”)
same,Aβ40 Change Soluble,Aβ40; [2],+ (increases in the levels of Aβ (relative to untreated control) of 20 to 39% are scored as “+”)
same,Aβ40 Change,Aβ40; [6],+++ (increases of 70% or higher are scored as “+++”)
same,Aβ40 Change,Aβ40; [7],+++ (increases of 70% or higher are scored as “+++”)
same,Aβ42 Change Insoluble,Aβ42; [1],−− (decreases of 20 to 38% are scored as “−−”)
same,Aβ42 Change Insoluble,Aβ42; [2],+ (increases in the levels of Aβ (relative to untreated control) of 20 to 39% are scored as “+”)
same,Aβ42 Change Soluble,Aβ42; [2],+ (increases in the levels of Aβ (relative to untreated control) of 20 to 39% are scored as “+”)
same,Aβ42 Change,Aβ42; [6],+++ (increases of 70% or higher are scored as “+++”)
same,Aβ42 Change,Aβ42; [7],+++ (increases of 70% or higher are scored as “+++”)
"CCCCCCCNCCCS(=O)(=O)O [CX, 3-heptylamino-1-propane-sulfonic acid]",Aβ40 Change Insoluble,Aβ40; [1],− (Decreases in the levels of Aβ of 5 to 19% are scored as “−”)
same,Aβ40 Change Soluble,Aβ40; [1],− (Decreases in the levels of Aβ of 5 to 19% are scored as “−”)
same,Aβ40 Change Insoluble,Aβ40; [2],+ (increases in the levels of Aβ (relative to untreated control) of 20 to 39% are scored as “+”)
same,Aβ40 Change,Aβ40; [6],++ (increases of 40 to 69% are scored as “++”)
same,Aβ40 Change,Aβ40; [7],++ (increases of 40 to 69% are scored as “++”)
same,Aβ42 Change Insoluble,Aβ42; [1],− (Decreases in the levels of Aβ of 5 to 19% are scored as “−”)
same,Aβ42 Change Soluble,Aβ42; [1],+ (increases in the levels of Aβ (relative to untreated control) of 20 to 39% are scored as “+”)
same,Aβ42 Change Insoluble,Aβ42; [2],+++ (increases of 70% or higher are scored as “+++”)
same,Aβ42 Change Soluble,Aβ42; [2],++ (increases of 40 to 69% are scored as “++”)
same,Aβ42 Change,Aβ42; [6],++ (increases of 40 to 69% are scored as “++”)
same,Aβ42 Change,Aβ42; [7],+ (increases in the levels of Aβ (relative to untreated control) of 20 to 39% are scored as “+”)
